Test results as given in patent US8937048B2, “Anti-angiogenic compounds” (Covx Technologies Ireland, Limited, priority 2008, dated 2015).
Where a SMILES comes first, the peptide text is derived from it. Bridges are numbered along the chain shown (N, C = ends).

Target: T1, recombinant human VEGF165 (Homo sapiens, UniProt P15692)
T1 sequence (P15692 27-191 isoform P15692-4): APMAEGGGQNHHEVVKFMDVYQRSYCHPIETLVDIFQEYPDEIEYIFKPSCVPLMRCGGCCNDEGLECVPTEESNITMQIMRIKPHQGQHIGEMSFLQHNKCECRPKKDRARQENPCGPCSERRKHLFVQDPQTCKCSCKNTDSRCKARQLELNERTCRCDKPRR
Assay: VEGF peptide binding assay (competition ELISA, VEGF165 binding to coated VEGFR2/Fc)
Method: High-binding half-well 96-well plates (Costar #3690) were coated with recombinant human VEGFR2/Fc (50 ng/well) in 50 μl PBS, and incubated at 4° C. overnight. After washing the plates three times with 1× washing buffer (KPL Cat#50-65-00) and blocking with Superblock (Scytek #AAA500) at room temperature (RT) for 1 hour, VEGF-peptides of the invention were serially diluted (concentrations: 0.128-10,000 nM) in the presence of 25 ng/ml of recombinant human VEGF165 in […] Superblock, and were then added to the 96-well plates and incubated at RT for 1 hour. Peptides of the invention tested in this fashion were all capped at the amino terminus with a C(O)CH3 group and at the carboxyl terminus with a NH2 group. The plates were then washed three times with washing buffer, and a diluted (1:500) biotinylated anti-human VEGF antibody (R&D systems, Cat# BAF293) was added and incubated at RT for 2 hours. After washing the plates, streptavidin HRP conjugate (1:200 in Superblock) (R&D systems, Cat# DY998) was added to detect the bound anti-VEGF antibody, followed by addition of tetramethylbenzidine (TMB) substrate (Pierce, Cat#34021) for color development. The reaction was stopped with 2 M H2SO4. OD450 was measured using SpectraMax (Molecular Device) with a correction wavelength of 540 nm. The data were analyzed using Prism software. OD450 values were plotted as a function of the concentrations of the VEGF peptides. IC50 values, indicative of the potency of the VEGF peptides to inhibit VEGF-VEGFR2 interaction, were obtained using a sigmoid dose-response curve fit in Prism.

| SMILES | IC50 |
| --- | --- |
| CC[C@H](C)[C@@H]1NC(=O)[C@H](CC(=O)O)NC(=O)[C@@H](NC(=O)[C@H](CC(N)=O)NC(=O)[C@@H]2CCCN2C(=O)[C@H](CCC(=O)O)NC(=O)[C@@H](NC(C)=O)C(C)C)CSSC[C@@H](C(=O)N[C@@H](Cc2ccccc2)C(=O)N[C@@H](CCC(=O)O)C(=O)N[C@@H](CCCNC(=N)N)C(=O)N[C@@H](CC(C)C)C(=O)N[C@@H](Cc2ccc(O)cc2)C(=O)NCC(N)=O)NC(=O)[C@H](CCC(=O)O)NC(=O)[C@H](Cc2c[nH]c3ccccc23)NC(=O)[C@H](C(C)C)NC(=O)[C@H](Cc2c[nH]c3ccccc23)NC(=O)[C@H](CCSC)NC(=O)[C@H](C(C)C)NC(=O)[C@H](Cc2c[nH]cn2)NC1=O [Compound 47, VEPNCDIHVMWVWECFERLYG] (Ac-VEPNCDIHVMWVWECFERLYG-NH2; disulfide 5-15 (inferred)) | 43.3 nM |
| CC[C@H](C)[C@@H]1NC(=O)[C@H](CC(=O)O)NC(=O)[C@@H](NC(=O)[C@H](CC(N)=O)NC(=O)[C@@H]2CCCN2C(=O)[C@H](CCC(=O)O)NC(=O)[C@@H](NC(C)=O)C(C)C)CSSC[C@@H](C(=O)N[C@@H](Cc2ccccc2)C(=O)N[C@@H](CCC(=O)O)C(=O)N[C@@H](CCCNC(=N)N)C(=O)N[C@@H](CC(C)C)C(=O)N[C@@H](CCSC)C(=O)N[C@@H](CCCNC(=N)N)C(=O)N[C@@H](CCC(=O)O)C(=O)N[C@@H](CC(C)C)C(N)=O)NC(=O)[C@H](CCC(=O)O)NC(=O)[C@H](Cc2c[nH]c3ccccc23)NC(=O)[C@H](C(C)C)NC(=O)[C@H](Cc2c[nH]c3ccccc23)NC(=O)[C@H](CCSC)NC(=O)[C@H](C(C)C)NC(=O)[C@H](Cc2c[nH]cn2)NC1=O [Compound 63, VEPNCDIHVMWVWECFERLMREL] (Ac-VEPNCDIHVMWVWECFERLMREL-NH2; disulfide 5-15 (inferred)) | 24 nM |
| CC[C@H](C)[C@@H]1NC(=O)[C@H](CC(=O)O)NC(=O)[C@@H](NC(=O)[C@H](CC(N)=O)NC(=O)[C@@H]2CCCN2C(=O)[C@H](CCC(=O)O)NC(=O)[C@@H](NC(C)=O)C(C)C)CSSC[C@@H](C(=O)N[C@@H](Cc2ccccc2)C(=O)N[C@@H](CCC(=O)O)C(=O)N[C@@H](CCCNC(=N)N)C(=O)N[C@@H](CC(C)C)C(=O)N[C@@H](Cc2ccc(O)cc2)C(=O)N[C@@H](CCCCN)C(N)=O)NC(=O)[C@H](CCC(=O)O)NC(=O)[C@H](Cc2c[nH]c3ccccc23)NC(=O)[C@H](C(C)C)NC(=O)[C@H](Cc2c[nH]c3ccccc23)NC(=O)[C@H](CCSC)NC(=O)[C@H](C(C)C)NC(=O)[C@H](Cc2c[nH]cn2)NC1=O [Compound 58, VEPNCDIHVMWVWECFERLYK] (Ac-VEPNCDIHVMWVWECFERLYK-NH2; disulfide 5-15 (inferred)) | 25.1 nM |
| CC[C@H](C)[C@@H]1NC(=O)[C@H](CC(=O)O)NC(=O)[C@@H](NC(=O)[C@H](CC(N)=O)NC(=O)[C@@H]2CCCN2C(=O)[C@H](CCC(=O)O)NC(=O)[C@@H](NC(C)=O)C(C)C)CSSC[C@@H](C(=O)N[C@@H](Cc2ccccc2)C(=O)N[C@@H](CCC(=O)O)C(=O)N[C@@H](CCCNC(=N)N)C(=O)N[C@@H](CC(C)C)C(=O)N[C@@H](Cc2ccc(O)cc2)C(=O)NCC(=O)N[C@@H](CC(C)C)C(N)=O)NC(=O)[C@H](CCC(=O)O)NC(=O)[C@H](Cc2c[nH]c3ccccc23)NC(=O)[C@H](C(C)C)NC(=O)[C@H](Cc2c[nH]c3ccccc23)NC(=O)[C@H](CCSC)NC(=O)[C@H](C(C)C)NC(=O)[C@H](Cc2c[nH]cn2)NC1=O [Compound 72, VEPNCDIHVMWVWECFERLYGL] (Ac-VEPNCDIHVMWVWECFERLYGL-NH2; disulfide 5-15 (inferred)) | 4.8 nM |
| CC[C@H](C)[C@@H]1NC(=O)[C@H](CC(=O)O)NC(=O)[C@@H](NC(=O)[C@H](CC(N)=O)NC(=O)[C@@H]2CCCN2C(=O)[C@H](CCC(=O)O)NC(=O)[C@@H](NC(C)=O)C(C)C)CSSC[C@@H](C(=O)N[C@@H](Cc2ccccc2)C(=O)N[C@@H](CCC(=O)O)C(=O)N[C@@H](CCCNC(=N)N)C(=O)N[C@@H](CC(C)C)C(=O)N[C@@H](Cc2ccccc2)C(=O)N[C@@H](CCCCN)C(=O)N[C@@H](CCC(=O)O)C(=O)N[C@@H](C)C(N)=O)NC(=O)[C@H](C(C)C)NC(=O)[C@H](Cc2c[nH]c3ccccc23)NC(=O)[C@H](C(C)C)NC(=O)[C@H](Cc2c[nH]c3ccccc23)NC(=O)[C@H](CCSC)NC(=O)[C@H](C(C)C)NC(=O)[C@H](Cc2c[nH]cn2)NC1=O [Compound 37, VEPNCDIHVMWVWVCFERLFKEA] (Ac-VEPNCDIHVMWVWVCFERLFKEA-NH2; disulfide 5-15 (inferred)) | 59 nM |
| CC[C@H](C)[C@@H]1NC(=O)[C@H](CC(=O)O)NC(=O)[C@@H](NC(=O)[C@H](CC(N)=O)NC(=O)[C@@H]2CCCN2C(=O)[C@H](CCC(=O)O)NC(=O)[C@@H](NC(C)=O)C(C)C)CSSC[C@@H](C(=O)N[C@@H](Cc2ccccc2)C(=O)N[C@@H](CCC(=O)O)C(=O)N[C@@H](CCCNC(=N)N)C(=O)N[C@@H](CC(C)C)C(=O)N[C@@H](Cc2ccc(O)cc2)C(=O)NCC(=O)NCC(=O)NCC(N)=O)NC(=O)[C@H](C(C)C)NC(=O)[C@H](Cc2c[nH]c3ccccc23)NC(=O)[C@H](C(C)C)NC(=O)[C@H](Cc2c[nH]c3ccccc23)NC(=O)[C@H](CCSC)NC(=O)[C@H](C(C)C)NC(=O)[C@H](Cc2c[nH]cn2)NC1=O [Compound 43, VEPNCDIHVMWVWVCFERLYGGG] (Ac-VEPNCDIHVMWVWVCFERLYGGG-NH2; disulfide 5-15) | 66 nM |
| CC[C@H](C)[C@@H]1NC(=O)[C@H](CC(=O)O)NC(=O)[C@@H](NC(=O)[C@H](CC(N)=O)NC(=O)[C@@H]2CCCN2C(=O)[C@H](CCC(=O)O)NC(=O)[C@@H](NC(C)=O)C(C)C)CSSC[C@@H](C(=O)N[C@@H](Cc2ccccc2)C(=O)N[C@@H](CCC(=O)O)C(=O)N[C@@H](CCCNC(=N)N)C(=O)N[C@@H](CC(C)C)C(=O)N[C@@H](Cc2ccccc2)C(=O)N[C@@H](CCCCN)C(=O)N[C@@H](CCC(=O)O)C(=O)N[C@@H](C)C(N)=O)NC(=O)[C@H](CCC(=O)O)NC(=O)[C@H](Cc2c[nH]c3ccccc23)NC(=O)[C@H](C(C)C)NC(=O)[C@H](Cc2c[nH]c3ccccc23)NC(=O)[C@H](CCSC)NC(=O)[C@H](C(C)C)NC(=O)[C@H](Cc2c[nH]cn2)NC1=O [Compound 53, VEPNCDIHVMWVWECFERLFKEA] (Ac-VEPNCDIHVMWVWECFERLFKEA-NH2; disulfide 5-15 (inferred)) | 31.4 nM |
| CC[C@H](C)[C@H](NC(=O)CNC(=O)[C@H](Cc1ccc(O)cc1)NC(=O)[C@H](CC(C)C)NC(=O)[C@H](CCCNC(=N)N)NC(=O)[C@H](CCC(=O)O)NC(=O)[C@H](Cc1ccccc1)NC(=O)[C@@H]1CSSC[C@H](NC(=O)[C@H](CC(N)=O)NC(=O)[C@@H]2CCCN2C(=O)[C@H](CCC(=O)O)NC(=O)[C@@H](NC(C)=O)C(C)C)C(=O)N[C@@H](CC(=O)O)C(=O)N[C@@H]([C@@H](C)CC)C(=O)N[C@@H](Cc2c[nH]cn2)C(=O)N[C@@H](C(C)C)C(=O)N[C@@H](CCSC)C(=O)N[C@@H](Cc2c[nH]c3ccccc23)C(=O)N[C@@H](C(C)C)C(=O)N[C@@H](Cc2c[nH]c3ccccc23)C(=O)N[C@@H](CCC(=O)O)C(=O)N1)C(=O)N[C@@H](CC(C)C)C(N)=O [Compound 50, VEPNCDIHVMWVWECFERLYGIL] (Ac-VEPNCDIHVMWVWECFERLYGIL-NH2; disulfide 5-15 (inferred)) | 34.4 nM |
